Laboratory results published in PubChem BioAssay AID248 (DTP/NCI, 2004).
Inconclusive results and toxic doses are left out. Cut-off read from the data, not from the text of the source: active = T/C of 150% or more; inactive = T/C below 125%.

System: L1210 leukemia ip in BDF1 mice, survival T/C
Experiment: NCI In Vivo Anticancer Drug Screen. Data for tumor model L1210 Leukemia (intraperitoneal) in B6D2F1 (BDF1) mice
Details: endpoint: mean survival time, higher = longer survival
Outline: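 Tumor was transplanted into mice, which were then dosed with test compound or vehicle alone. Survival was recorded for each group, and the treated figure was expressed relative to the control figure.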

[1] = dose: 100.0 mg/kg/injection, schedule: Q01DX009 (ip), vehicle: saline with Tween-80
[2] = dose: 100.0 mg/kg/injection, schedule: Q04DX003 (ip), vehicle: saline with Tween-80
[3] = dose: 200.0 mg/kg/injection, schedule: Q01DX009 (ip), vehicle: saline with Tween-80
[4] = dose: 200.0 mg/kg/injection, schedule: Q04DX003 (ip), vehicle: saline with Tween-80
[5] = dose: 400.0 mg/kg/injection, schedule: Q04DX003 (ip), vehicle: saline with Tween-80
[6] = dose: 75.0 mg/kg/injection, schedule: Q01DX001 (ip), vehicle: saline
[7] = dose: 150.0 mg/kg/injection, schedule: Q01DX001 (ip), vehicle: saline
[8] = dose: 100.0 mg/kg/injection, schedule: Q01DX001 (ip), vehicle: other
[9] = dose: 200.0 mg/kg/injection, schedule: Q01DX001 (ip), vehicle: other
[10] = dose: 400.0 mg/kg/injection, schedule: Q01DX001 (ip), vehicle: other
[11] = dose: 100.0 mg/kg/injection, schedule: Q04DX002 (ip), vehicle: Klucel (hydroxypropylcellulose) (HPC)
[12] = dose: 200.0 mg/kg/injection, schedule: Q04DX002 (ip), vehicle: Klucel (hydroxypropylcellulose) (HPC)
[13] = dose: 400.0 mg/kg/injection, schedule: Q04DX002 (ip), vehicle: Klucel (hydroxypropylcellulose) (HPC)
[14] = dose: 100.0 mg/kg/injection, schedule: Q01DX009 (ip), vehicle: Klucel (hydroxypropylcellulose) (HPC)
[15] = dose: 100.0 mg/kg/injection, schedule: Q04DX003 (ip), vehicle: Klucel (hydroxypropylcellulose) (HPC)
[16] = dose: 200.0 mg/kg/injection, schedule: Q01DX009 (ip), vehicle: Klucel (hydroxypropylcellulose) (HPC)
[17] = dose: 400.0 mg/kg/injection, schedule: Q01DX009 (ip), vehicle: Klucel (hydroxypropylcellulose) (HPC)
[18] = dose: 100.0 mg/kg/injection, schedule: Q04DX003 (ip), vehicle: saline sonified
[19] = dose: 100.0 mg/kg/injection, schedule: Q01DX001 (ip), vehicle: carboxymethylcellulose (CMC)
[20] = dose: 200.0 mg/kg/injection, schedule: Q01DX001 (ip), vehicle: carboxymethylcellulose (CMC)
[21] = dose: 400.0 mg/kg/injection, schedule: Q01DX001 (ip), vehicle: carboxymethylcellulose (CMC)

Measured: T/C

O=C(CCC(O)c1ccccc1)c1ccccc1 (configuration not stated)
inactive: [1] 94 % of control | [2] 110 % of control | [3] 94 % of control | [4] 106 % of control | dose: 400.0 mg/kg/injection, schedule: Q01DX009 (ip), vehicle: saline with Tween-80 97 % of control | [5] 97 % of control

CNC(=O)Oc1cccc(N)c1
inactive: [6] 109 % of control | [7] 114 % of control

C=C(C)C1CCC2(C=O)CCC3(C)C(CCC4C5(C)CCC(O)C(C)(C)C5CCC43C)C12 (configuration not stated)
inactive: dose: 18.75 mg/kg/injection, schedule: Q01DX009 (ip), vehicle: Klucel (hydroxypropylcellulose) (HPC) 100 % of control | dose: 37.5 mg/kg/injection, schedule: Q01DX009 (ip), vehicle: Klucel (hydroxypropylcellulose) (HPC) 93 % of control | dose: 75.0 mg/kg/injection, schedule: Q01DX009 (ip), vehicle: Klucel (hydroxypropylcellulose) (HPC) 89 % of control

O=C(O)C1C2C=CC21 (configuration not stated)
inactive: [8] 96 % of control | [9] 101 % of control | [10] 102 % of control

CN(CCN(C)CP(c1ccccc1)c1ccccc1)CP(c1ccccc1)c1ccccc1
inactive: dose: 100.0 mg/kg/injection, schedule: Q04DX002 (sc), vehicle: olive oil, sesame oil, peanut oil 96 % of control | dose: 200.0 mg/kg/injection, schedule: Q04DX002 (sc), vehicle: olive oil, sesame oil, peanut oil 104 % of control | dose: 400.0 mg/kg/injection, schedule: Q04DX002 (sc), vehicle: olive oil, sesame oil, peanut oil 110 % of control

NC(=O)NC(=O)NCc1ccccc1
inactive: [11] 98 % of control | [12] 94 % of control | [13] 94 % of control

O=c1[nH]ccc2n[nH]nc12
inactive: [8] 104 % of control | dose: 100.0 mg/kg/injection, schedule: Q04DX003 (ip), vehicle: other 96 % of control | [9] 101 % of control | dose: 200.0 mg/kg/injection, schedule: Q04DX003 (ip), vehicle: other 105 % of control | [10] 104 % of control | dose: 400.0 mg/kg/injection, schedule: Q04DX003 (ip), vehicle: other 102 % of control

NC(=O)Nc1cccc2ccccc12
inactive: [14] 97 % of control | [15] 92 % of control | [16] 97 % of control | dose: 200.0 mg/kg/injection, schedule: Q04DX003 (ip), vehicle: Klucel (hydroxypropylcellulose) (HPC) 94 % of control | [17] 103 % of control | dose: 400.0 mg/kg/injection, schedule: Q04DX003 (ip), vehicle: Klucel (hydroxypropylcellulose) (HPC) 100 % of control

O=C(Nc1ccccc1)Nc1ccc(C(=O)CCl)cc1
inactive: dose: 100.0 mg/kg/injection, schedule: Q01DX005 (ip), vehicle: saline with Tween-80 96 % of control | [2] 102 % of control | dose: 200.0 mg/kg/injection, schedule: Q01DX005 (ip), vehicle: saline with Tween-80 110 % of control | [4] 112 % of control | dose: 400.0 mg/kg/injection, schedule: Q01DX005 (ip), vehicle: saline with Tween-80 92 % of control | [5] 100 % of control

CCOC(=O)C1CC(C)c2[nH]c3ccccc3c21 (configuration not stated)
inactive: [11] 110 % of control | [12] 107 % of control | [13] 89 % of control

CC(=O)[O][Pb]([CH2]C(C)C)([CH2]C(C)C)[CH2]C(C)C
inactive: dose: 1.5 mg/kg/injection, schedule: Q01DX009 (ip), vehicle: Klucel (hydroxypropylcellulose) (HPC) 97 % of control | dose: 3.0 mg/kg/injection, schedule: Q01DX001 (ip), vehicle: Klucel (hydroxypropylcellulose) (HPC) 91 % of control | dose: 3.0 mg/kg/injection, schedule: Q01DX009 (ip), vehicle: Klucel (hydroxypropylcellulose) (HPC) 95 % of control | dose: 6.0 mg/kg/injection, schedule: Q01DX001 (ip), vehicle: Klucel (hydroxypropylcellulose) (HPC) 96 % of control | dose: 6.0 mg/kg/injection, schedule: Q01DX009 (ip), vehicle: Klucel (hydroxypropylcellulose) (HPC) 95 % of control | dose: 6.25 mg/kg/injection, schedule: Q01DX009 (ip), vehicle: Klucel (hydroxypropylcellulose) (HPC) 96 % of control | dose: 12.0 mg/kg/injection, schedule: Q01DX001 (ip), vehicle: Klucel (hydroxypropylcellulose) (HPC) 92 % of control | dose: 12.5 mg/kg/injection, schedule: Q04DX002 (ip), vehicle: Klucel (hydroxypropylcellulose) (HPC) 96 % of control

Cc1cc(Br)c(N(C=O)N=O)c(Br)c1
inactive: [6] 101 % of control | [7] 104 % of control

COc1cc2ccc(CC3NCCc4cc5c(cc43)OCO5)cc2cc1OC (configuration not stated)
inactive: dose: 100.0 mg/kg/injection, schedule: Q01DX009 (ip), vehicle: saline sonified 93 % of control | [18] 88 % of control | dose: 200.0 mg/kg/injection, schedule: Q01DX009 (ip), vehicle: saline sonified 98 % of control | dose: 200.0 mg/kg/injection, schedule: Q04DX003 (ip), vehicle: saline sonified 88 % of control | dose: 400.0 mg/kg/injection, schedule: Q01DX009 (ip), vehicle: saline sonified 93 % of control | dose: 400.0 mg/kg/injection, schedule: Q04DX003 (ip), vehicle: saline sonified 95 % of control

CC1(C)CC2(OC2c2cccc(Cl)c2)C(=O)c2ccccc21 (configuration not stated)
inactive: [2] 89 % of control | [4] 94 % of control | [5] 89 % of control

ClC(Cl)=C(Cl)c1ccccc1
inactive: dose: 25.6 mg/kg/injection, schedule: Q04DX002 (ip), vehicle: saline with Tween-80 93 % of control | dose: 64.0 mg/kg/injection, schedule: Q04DX002 (ip), vehicle: saline with Tween-80 87 % of control | [2] 98 % of control | dose: 160.0 mg/kg/injection, schedule: Q04DX002 (ip), vehicle: saline with Tween-80 90 % of control | [4] 93 % of control | dose: 400.0 mg/kg/injection, schedule: Q04DX002 (ip), vehicle: saline with Tween-80 93 % of control | [5] 93 % of control

O=S(=O)(Cl)OO/C=C\OOS(=O)(=O)Cl
inactive: dose: 100.0 mg/kg/injection, schedule: Q01DX001 (ip), vehicle: saline 101 % of control | dose: 200.0 mg/kg/injection, schedule: Q01DX001 (ip), vehicle: saline 108 % of control

COc1cc(-c2[o+]c3cc(O)cc(O)c3cc2OC2OC(CO)C(O)C(O)C2O)cc(OC)c1O (configuration not stated)
inactive: [19] 92 % of control | [18] 98 % of control | [20] 101 % of control | [21] 100 % of control

CCCCCCCC1CCC(N)CC1 (configuration not stated)
inactive: dose: 12.5 mg/kg/injection, schedule: Q04DX003 (ip), vehicle: Klucel (hydroxypropylcellulose) (HPC) 105 % of control | dose: 25.0 mg/kg/injection, schedule: Q04DX003 (ip), vehicle: Klucel (hydroxypropylcellulose) (HPC) 91 % of control | dose: 50.0 mg/kg/injection, schedule: Q04DX003 (ip), vehicle: Klucel (hydroxypropylcellulose) (HPC) 100 % of control

O=[N+]([O-])c1ccc2nccc(Cl)c2c1
inactive: dose: 25.0 mg/kg/injection, schedule: Q01DX009 (ip), vehicle: Klucel (hydroxypropylcellulose) (HPC) 97 % of control | dose: 50.0 mg/kg/injection, schedule: Q01DX009 (ip), vehicle: Klucel (hydroxypropylcellulose) (HPC) 92 % of control | [15] 95 % of control

Nc1ccnc(Cl)c1N
inactive: dose: 50.0 mg/kg/injection, schedule: Q01DX009 (ip), vehicle: saline with Tween-80 111 % of control | dose: 50.0 mg/kg/injection, schedule: Q04DX003 (ip), vehicle: saline with Tween-80 97 % of control | [1] 111 % of control | [2] 101 % of control | [3] 109 % of control | [4] 95 % of control

S=C(Nc1ccccc1)N1CCCCC1
inactive: dose: 50.0 mg/kg/injection, schedule: Q01DX001 (ip), vehicle: carboxymethylcellulose (CMC) 97 % of control | [19] 100 % of control | [20] 97 % of control | [21] 103 % of control

Cc1cccc(Cl)c1NC(=O)Oc1ccc2c(C)cc(=O)oc2c1
inactive: [14] 102 % of control | [16] 100 % of control | [17] 87 % of control
